The values below come from publication PMC6928345, “Detection and functional characterization of sigma class GST in Phlebotomus argentipes and its role in stress tolerance and DDT resistance” (Scientific Reports, 2019).

The target of data set [1] is T1, rParg-GSTσ (sigma class GST of P. argentipes) (Phlebotomus argentipes, UniProt A0A5A4I953).
T1 construct: PCR primers designed on P. papatasi GSTσ
T1 sequence (A0A5A4I953 1-203): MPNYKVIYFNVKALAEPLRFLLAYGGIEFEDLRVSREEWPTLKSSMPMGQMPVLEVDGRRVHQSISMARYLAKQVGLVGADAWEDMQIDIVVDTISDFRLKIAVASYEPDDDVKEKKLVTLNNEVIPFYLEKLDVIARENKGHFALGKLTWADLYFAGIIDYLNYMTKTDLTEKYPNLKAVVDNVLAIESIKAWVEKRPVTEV
Description: spectrophotometric GSH conjugation assay, […] nm. Conditions: 1 mM GSH, CDNB 0.07–8 mM, sodium phosphate pH 6.5, room temperature. In kind it is biochemical.

Data set [2] has as its target T1, rParg-GSTσ (sigma class GST of P. argentipes). Description: inhibition of GST activity, residual activity. In kind it is biochemical.
Substrate in data set [3]: CC(C)(OO)c1ccccc1
In words: purified protein. In kind it is biochemical, Phlebotomus argentipes. The following applies: 1 mM GSH, 0.2 mM NADPH, 1 mM EDTA, cumene hydroperoxide 0.08–1.0 mM, sodium phosphate buffer.

Substrate in data set [4]: CCCCCC(O)/C=C/C=O
In words: purified protein. Conditions: 1 mM GSH, 4-HNE 10–100 µM, sodium phosphate buffer. In kind it is biochemical, Phlebotomus argentipes.

Regarding `O=[N+]([O-])c1ccc(Cl)c([N+](=O)[O-])c1` [CDNB], the Km in data set [1] was 390 µM.
In data set [2], `C=C(CC)C(=O)c1ccc(OCC(=O)O)c(Cl)c1Cl` [Ethacrynic acid] returned an IC50 of 50 nM.

B1: rParg-GSTσ (sigma class GST of P. argentipes) (Phlebotomus argentipes) (protein)
chain: T1 sequence (A0A5A4I953 1-203)
notes: PCR primers designed on P. papatasi GSTσ
Consider B1, for which the values for the Km in “purified protein [3]” and in the data set “purified protein [4]” were 180 µM and 5.02 µM, respectively.
